Results reported in patent publication US20260055110A1 (Azura Ophthalmics Ltd., priority 2021, published 2026).

Legend:
[1] = system: keratoconjunctivitis and dry eye disease; settings: humans and/or dogs; Kravetz de Oliveira 2019; cited from earlier work
[2] = molecular target: T1, glucocorticoid receptor (GR) (Homo sapiens, UniProt P04150); assay: Glucocorticoid Binding Assay, GR (h) (agonist radioligand); settings: IM9 cytosol, 3H-dexamethasone competitive binding
T1 construct: by mixing 1 mg of IM9 cytosol; host or cells: IM9 human lymphoblast cell cytosol
T1 sequence (P04150 1-777): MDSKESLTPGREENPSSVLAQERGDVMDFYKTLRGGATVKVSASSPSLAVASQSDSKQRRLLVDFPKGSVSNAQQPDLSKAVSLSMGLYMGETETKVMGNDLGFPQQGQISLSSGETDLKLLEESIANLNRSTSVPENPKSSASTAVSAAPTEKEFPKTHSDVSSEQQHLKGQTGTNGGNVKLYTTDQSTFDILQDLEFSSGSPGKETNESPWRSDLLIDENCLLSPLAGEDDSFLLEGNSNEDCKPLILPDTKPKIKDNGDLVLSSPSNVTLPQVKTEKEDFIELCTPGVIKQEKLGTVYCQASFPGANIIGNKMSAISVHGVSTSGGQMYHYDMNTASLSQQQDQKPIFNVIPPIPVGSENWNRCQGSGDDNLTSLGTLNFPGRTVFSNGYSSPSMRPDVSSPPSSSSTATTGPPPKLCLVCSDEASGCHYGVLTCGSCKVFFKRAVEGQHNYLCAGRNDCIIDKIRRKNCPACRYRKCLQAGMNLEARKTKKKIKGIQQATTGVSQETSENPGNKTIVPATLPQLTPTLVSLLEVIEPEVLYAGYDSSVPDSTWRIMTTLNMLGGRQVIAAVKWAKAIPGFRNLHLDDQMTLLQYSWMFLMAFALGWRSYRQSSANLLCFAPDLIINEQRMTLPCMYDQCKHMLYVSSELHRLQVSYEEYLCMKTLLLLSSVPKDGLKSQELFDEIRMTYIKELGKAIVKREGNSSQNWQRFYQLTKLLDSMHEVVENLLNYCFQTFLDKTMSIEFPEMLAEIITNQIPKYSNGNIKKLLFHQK
Method: GR (h) (agonist radioligand) assay performed by Eurofins Cerep, France using a method similar to the one described hereinbelow.
The human lymphoblast cell line IM9 is used as a source of the soluble glucocorticoid receptor (GR). The cells are grown to densities of 1 to 10×10^5 cells per milliliter in RPMI 1640 media containing 10% fetal bovine serum, penicillin (100 U/ml), streptomycin (100 μg/ml), and 2 mM L-glutamine at […] and 7% CO2 in a humidified incubator. The IM9 cells are harvested from the media by centrifugation for 10 minutes at 1500 g. Cells are washed in 12 volumes of Dulbecco's phosphate-buffered saline (PBS) and re-pelleted. Washed cells are resuspended in five to six volumes (per volume of packed cells) of homogenization buffer (10 mM TES, 10 mM sodium molybdate, 1 mM EDTA, pH 7.4, 20 mM 2-mercaptoethanol, and 10% glycerol), and the cells are broken by nitrogen cavitation using 2×15 minutes at 600 to 750 psi nitrogen in the N2 cavitator at 0° C. Cell disruption is confirmed by Hoffman contrast microscopy using a Nikon Diaphot. The broken cell preparation is then centrifuged at 27,000 g for 15 minutes, and the resultant supernatant was centrifuged at 103,000 g for 60 minutes at 4° C. The amount of protein in the supernatant fraction is determined using a BCA assay kit with a bovine serum albumin standard. Aliquots of the supernatant fraction are snap frozen in a dry ice-acetone bath and stored at −70° C. Competitive binding assays are done in duplicate in homogenization buffer (total volume of […]) by mixing 1 mg of IM9 cytosol, 0.05/ρCi (3 nM) of ^3H-dexamethasone, and Compounds described herein (10^−5 to 10^−11 M). After incubation at 0° C. for 16 to 18 hours, the assay is stopped by the addition of […] of a charcoal-dextran mixture (2% activated charcoal, 0.5% dextran in 10 mM Tris, 1 mM EDTA, pH 7.4). The assay mixture is further incubated at 0° C. for 10 minutes before being centrifuged for 5 minutes at 8200 g. A 100-μl sample of the supernatant (protein-bound steroid fraction) is assayed for radioactivity by liquid scintillation spectrometry, and the IC50 values were determined graphically.
In some instances, an ester is active in the glucocorticoid binding assay. In some instances, an ester retains activity, such as when attached to a keratolytic agent (or a radical thereof), in the glucocorticoid binding assay.

dry eye = settings: murine model; Sadrai et al 2012; cited from earlier work
Rabbit Cornea Esterase = assay: Rabbit Cornea Homogenate Stability Assay (Rabbit Cornea Esterase Assay); type: in vitro ADME; settings: Table 13, rabbit breed not given
Method: Example 1: Rabbit Cornea Homogenate Stability Assay […]
Three to four rabbit corneas (e.g., New Zealand Whites (NZW) or Dutch Belted (DB)) of approx. 50 mg each were sliced and scraped with a scalpel and tweezers until reduced to small (1-3 mm), thin pieces. These were transferred into a glass vial containing approximately 2 mL of cold DPBS pH 7.4 buffer.
Sample was cooled intermittently on ice and shear homogenized for 3 minutes, then centrifuged for 3 min at 13,000 g. The supernatant was pipetted off into a vial, and total protein concentration determined at 280 nm. Sample was stored at −78° C.
10 mM Compound DMSO stocks were diluted to 10 μM in a glass vial: 10 μL of 10 mM Compound stock was added to 9,990 μl 50 mM DPBS, pH 7.4 buffer. Esterase homogenate was diluted to 300 ng/μl and 900 ng/μL in DPBS.
A heater shaker was set to 37° C. Into a suitable 96 well plate (Run Plate), 70 μL of 300 or 900 ng/μl esterase homogenate was pipetted into two rows as compounds were analyzed in duplicate (2 min, 5 min, 10 min, 20 min and 45 min). The plate was sealed and then warmed at 37° C. for 5 min.
Two 96 deep-well plates were put on ice (Kill Plates). To these, 990 μL of 50:50 MeCN—H2O were added to required rows, labelled 0 min 2 min, 5 min, 10 min, 20 min and 45 min. The plates were covered to minimize evaporation.
To both rows of the Run Plate, 70 μL of 10 μM compound solution was added. At the appropriate time point, 10 μL of the assay mixture was added to the matching kill plate well containing 990 μL of 50:50 cold MeCN—H2O. Samples were analyzed as soon as practicable by UPLC-MS (Waters Xevo TQ-S).
A heater shaker was set to 37° C. Into a suitable 96 well plate (Run Plate), 80 μL of 300 or 900 ng/μL esterase homogenate was pipetted into two rows as compounds were analyzed in duplicate (2 min, 5 min, 10 min, 20 min and 45 min). The plate was sealed and then warmed at 37° C. for 5 min.
Two 96 shallow-well plates were placed on ice (Kill Plates). To these, 180 μL of 60:40 MeCN-H2O+0.1% acetic acid are added to required rows. The plates were sealed to minimize evaporation.
To both rows of the Run Plate, 80 μL of 10 μM compound solution was added. At the appropriate time point, 20 μL of the assay mixture was added to the matching kill plate well containing 180 μL of 60:40 cold MeCN-H2O+0.1% acetic acid. For lipoic acid analysis, samples were analyzed as soon as practicable by LCMS (Waters Xevo TQ-S). For parent conjugate and parent analysis the samples are diluted further 1 in 10: 20 μL supernatant is added to 180 μL of 50:50 MeCN—H2O.

[3] = system: dermatitis, keratoconjunctivitis, dry eye disease; settings: humans and/or dogs; literature; cited from earlier work
alopecia = settings: humans and murine models; NCT02974868; cited from earlier work
[4] = system: psoriasis, alopecia, uveitis; settings: murine models; Mesa 2010, Falto-Aizpurua et al 2014, Lin et al 2021; cited from earlier work
[5] = system: psoriasis, alopecia, dermatitis, dry eye disease; settings: humans and/or murine models; literature; cited from earlier work
uveitis = settings: humans and/or murine models; Gangaputra 2009; cited from earlier work

In the case of `C=CC[C@H]1/C=C(/C)C[C@@H](C)C[C@@H](OC)[C@@H]2O[C@@](O)(C(=O)C(=O)N3CCCCC3C(=O)O[C@H](/C(C)=C/[C@@H]3CC[C@@H](O)[C@H](OC)C3)[C@H](C)[C@@H](O)CC1=O)[C@H](C)C[C@@H]2OC` (single isomer, unassigned; (-)) [Tacrolimus], the “objective signs of keratoconjunctivitis and dry eye disease” value [1] is given as “improvements in objective signs”.
Work on `CC(=O)N1[C@H](C(=O)O[C@]2(C(=O)O)[C@H](C)C[C@H]3[C@@H]4C[C@H](F)C5=CC(=O)C=C[C@]5(C)[C@@]4(F)[C@@H](O)C[C@@]32C)CSC1(C)C` [Chemical Synthesis Example 70, (6S,8S,9R,10S,11S,13S,14S,16R,17R)-17-(((R)-3-Acetyl-2,2-dimethylthiazolidine-4-carbonyl)oxy)-6,9-difluoro-11-hydroxy-10,13,16-trimethyl-3-oxo-6,7,8,9,10,11,12,13,14,15,16,17-dodecahydro-3H-cyclopenta[a]phenanthrene-17-carboxylic acid] yielded an EC50 [2] greater than 100 nM.
In the case of `COc1ccc([C@]2(C#N)CC[C@@H](C(=O)O)CC2)cc1OC1CCCC1` [Cilomilast, cis-4-cyano-4-[3-(cyclopentyloxy)-4-methoxyphenyl]cyclohexanecarboxylic acid], the “objective signs of dry eye” value (dry eye) is given as “improvements in objective signs”.
With `C[C@@H]1C[C@H]2[C@@H]3C[C@H](F)C4=CC(=O)C=C[C@]4(C)[C@@]3(F)[C@@H](O)C[C@]2(C)[C@@]1(OC(=O)CCCC[C@@H]1CCSS1)C(=O)OCC#N` [Compound 73A, Cyanomethyl (6S,8S,9R,10S,11S,13S,14S,16R,17R)-17-((5-((R)-1,2-dithiolan-3-yl)pentanoyl)oxy)-6,9-difluoro-11-hydroxy-10,13,16-trimethyl-3-oxo-6,7,8,9,10,11,12,13,14,15,16,17-dodecahydro-3H-cyclopenta[a]phenanthrene-17-carboxylate] the “Esterase (0.15 mg/mL) % parent released after 45 min” value (Rabbit Cornea Esterase; rabbit cornea homogenate 0.15 mg/mL) was “A (<25%)”, the “Esterase (0.45 mg/mL) % parent released after 45 min” value (Rabbit Cornea Esterase; rabbit cornea homogenate 0.45 mg/mL) was “A (<25%)” and the EC50 [2] was greater than 100 nM.
In the case of `CNS(=O)(=O)C[C@H]1CC[C@H](N(C)c2ncnc3[nH]ccc23)CC1` [Oclacitinib, N-methyl{trans-4-[methyl(7H-pyrrolo[2,3-d]pyrimidin-4-yl)amino]cyclohexyl}methanesulfonamide], the “objective signs of dermatitis, keratoconjunctivitis and dry eye disease” value [3] is listed as “improvements in objective signs”.
In the case of `C=CC(=O)N1C[C@H](Nc2ncnc3[nH]ccc23)CC[C@@H]1C` [Ritlecitinib, 1-((2S,5R)-5-((7H-pyrrolo[2,3-d]pyrimidin-4-yl)amino)-2-methylpiperidin-1-yl)prop-2-en-1-one], the “objective signs of alopecia” value (alopecia) is listed as “improvements in objective signs”.
In the case of `N#CC[C@H](C1CCCC1)n1cc(-c2ncnc3[nH]ccc23)cn1` [Ruxolitinib, (3R)-3-Cyclopentyl-3-[4-(7H-pyrrolo[2,3-d]pyrimidin-4-yl)pyrazol-1-yl]propanenitrile], the “objective signs of psoriasis, alopecia and uveitis” value [4] is given as “improvements in objective signs”.
In the case of `C[C@@H]1CCN(C(=O)CC#N)C[C@@H]1N(C)c1ncnc2[nH]ccc12` [Tofacitinib, 3-[(3R,4R)-4-Methyl-3-[methyl(7H-pyrrolo[2,3-d]pyrimidin-4-yl)amino]piperidin-1-yl]-3-oxopropanenitrile], the “objective signs of psoriasis, alopecia, dermatitis and dry eye disease” value [5] is listed as “improvements in objective signs”.
In the case of `CN(Cc1cnc2nc(N)nc(N)c2n1)c1ccc(C(=O)N[C@@H](CCC(=O)O)C(=O)O)cc1` [methotrexate, (2S)-2-[(4-{[(2,4-Diaminopteridin-6-yl)methyl](methyl)amino}benzoyl)amino]pentanedioic acid], the “objective signs of uveitis” value (uveitis) is listed as “improvements in objective signs”.
